Experimental data published in the supplement of paper PMC10307832.

Key:
Assay in all cases: relative viability (nuclei count vs DMSO), 5 days (fraction); higher = more cells survive
[1] = compound: CCC1=CN=CN=C1N2CCN(CC2)CC3=NC4=C(N3)C=C(C=C4)C(F)(F)F + CS(=O)(=O)N1CCN(Cc2cc3nc(-c4cccc5[nH]ncc45)nc(N4CCOCC4)c3s2)CC1 [Pictilisib] (partner 1 µM)
In short: (§1)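 Five library-drug doses in √10 steps were combined with a fixed anchor-drug dose, or a single drug was given alone, by pin tool to lung cancer cell lines in 1536-well plates the day after seeding. Nuclei were stained and counted after 5 days. Relative viability is the nuclei count in treated wells over that in vehicle wells, taken as the median of duplicate plates.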

[2] = compound: N=C1NC(=O)/C(=C/c2ccc(O)cc2)S1 [Mirin] + C[C@]1(O)C[C@@H](c2nc(-c3ccc4ccc(-c5ccccc5)nc4c3)c3c(N)nccn32)C1 [Linsitinib] (partner 1 µM)
In short: as §1

[3] = compound: N=C1NC(=O)/C(=C/c2ccc(O)cc2)S1 [Mirin] + CC1(C)CCC(c2ccc(Cl)cc2)=C(CN2CCN(c3ccc(C(=O)NS(=O)(=O)c4ccc(N[C@H](CCN5CCOCC5)CSc5ccccc5)c(S(=O)(=O)C(F)(F)F)c4)cc3)CC2)C1 [Navitoclax] (partner 0.5 µM)
In short: as §1

[4] = compound: CCC1=CN=CN=C1N2CCN(CC2)CC3=NC4=C(N3)C=C(C=C4)C(F)(F)F + CC(=O)c1c(C)c2cnc(Nc3ccc(N4CCNCC4)cn3)nc2n(C2CCCC2)c1=O [Palbociclib] (partner 0.5 µM)
In short: as §1

Row | Cell Line | relative viability ([1]; first compound 0.04 µM) | relative viability ([1]; first compound 0.1265 µM) | relative viability ([1]; first compound 0.4 µM) | relative viability ([1]; first compound 4 µM) | relative viability ([2]; first compound 0.25 µM) | relative viability ([2]; first compound 0.7906 µM) | relative viability ([2]; first compound 2.5 µM) | relative viability ([2]; first compound 7.906 µM) | relative viability ([2]; first compound 25 µM) | relative viability ([3]; first compound 0.25 µM) | relative viability ([3]; first compound 0.7906 µM) | relative viability ([3]; first compound 2.5 µM) | relative viability ([3]; first compound 7.906 µM) | relative viability ([3]; first compound 25 µM) | relative viability ([4]; first compound 0.04 µM) | relative viability ([4]; first compound 0.1265 µM) | relative viability ([4]; first compound 0.4 µM) | relative viability ([4]; first compound 1.265 µM) | relative viability ([4]; first compound 4 µM) | relative viability ([1]; first compound 1.265 µM)
1 | HCC-366 | 0.242 | 0.124 | 0.133 | 0.134 | 0.677 | 0.468 | 0.903 | 0.644 | 0.316 | 1.1 | 1.02 | 1.06 | 1.1 | 0.958 | 0.319 | 0.328 | 0.321 | 0.34 | 0.383 | –
2 | SW 1573 | 0.441 | 0.43 | 0.44 | 0.426 | 0.815 | 0.728 | 0.79 | 0.731 | 0.648 | 0.989 | 0.98 | 0.825 | 0.88 | 0.608 | 0.345 | 0.406 | 0.384 | 0.262 | 0.32 | 0.474
3 | HCC-44 | 0.584 | 0.593 | 0.557 | 0.596 | 0.64 | 0.789 | 0.703 | 0.711 | 0.501 | 1 | 0.967 | 0.916 | 0.945 | 0.989 | 0.965 | 0.956 | 0.991 | 0.937 | 0.859 | 0.477
4 | A-427 | 0.675 | 0.685 | 0.682 | 0.574 | 1.11 | – | 1.19 | 1.19 | 1.2 | 0.942 | – | 0.955 | 0.941 | 1.11 | 0.451 | 0.489 | 0.499 | 0.479 | 0.475 | 0.637
5 | NCI-H441 | 0.571 | 0.435 | 0.451 | 0.418 | 0.503 | 0.493 | 0.599 | 0.45 | 0.48 | 0.49 | 0.802 | 0.571 | 0.447 | 0.483 | 0.205 | 0.204 | 0.204 | 0.17 | 0.257 | 0.435
6 | LK-2 | 0.575 | 0.462 | 0.436 | 0.56 | 0.321 | 0.317 | 0.516 | 0.282 | 0.174 | 0.752 | 0.625 | 0.799 | 0.588 | 0.525 | 0.685 | 0.469 | 0.752 | 0.381 | 0.594 | 0.42
7 | NCI-H2023 | 0.274 | 0.225 | 0.216 | 0.319 | 0.709 | 0.674 | 0.653 | 0.684 | 0.522 | 0.991 | 0.963 | 1.01 | 0.995 | 0.972 | 0.422 | 0.347 | 0.358 | 0.376 | 0.345 | 0.192
8 | NCI-H647 | – | 0.433 | – | 0.399 | 1.37 | 1.44 | 1.19 | 1 | 0.63 | 1.05 | – | 1.06 | 1.11 | 1.08 | 0.518 | 0.345 | 0.346 | 0.292 | 0.374 | –
9 | SK-MES-1 | 0.431 | 0.354 | 0.346 | 0.38 | 1.06 | 1.22 | 1.18 | 1.07 | 1.26 | 1.2 | 1.34 | 1.23 | 1.19 | 1.4 | 0.322 | 0.327 | 0.278 | 0.32 | 0.318 | 0.282
